Reference: patent US8952024B2, “Herbicidal pyrimidone derivatives” (E I du Pont de Nemours and Company, priority 2009, dated 2015)

Columns and labels:
Type in all cases: in vivo
[1] = tested on: cocklebur (Xanthium strumarium); test: Test B pre-/postemergence plant response; conditions: for Cocklebur plant response rating (0 to 100 scale): 0 is no effect, 13 to 15 days
Excerpt: (§1) Seeds of plant species selected from blackgrass (Alopecurus myosuroides), downy bromegrass (Bromus tectorum), green foxtail (Setaria viridis), Italian ryegrass (Lolium multiflorum), wheat (Triticum aestivum), wild oat (Avena fatua), deadnettle (henbit deadnettle, Lamium amplexicaule), galium (catchweed bedstraw, Galium aparine), bermudagrass (Cynodon dactylon), Surinam grass (Brachiaria decumbens), cocklebur (Xanthium strumarium), corn (Zea mays), large crabgrass (Digitaria sanguinalis), woolly cupgrass (Eriochloa villosa), giant foxtail (Setaria faberii), goosegrass (Eleusine indica), johnsongrass (Sorghum halepense), kochia (Kochia scoparia), lambsquarters (Chenopodium album), morningglory (Ipomoea coccinea), nightshade (eastern black nightshade, Solanum ptycanthum), yellow nutsedge (Cyperus esculentus), pigweed (Amaranthus retroflexus), ragweed (common ragweed, Ambrosia elatior), Russian thistle (Salsola kali), soybean (Glycine max), sunflower (common oilseed sunflower, Helianthus annuus) and velvetleaf (Abutilon theophrasti) were planted into a blend of loam soil and sand and treated preemergence with test compounds formulated in a non-phytotoxic solvent mixture which included a surfactant.
(§2) At the same time, plants selected from these crop and weed species and also winter barley (Hordeum vulgare), canarygrass (Phalaris minor), chickweed (Stellaria media) and windgrass (Apera spica-venti) were planted in pots containing Redi-Earth® planting medium (Scotts Company, 14111 Scottslawn Road, Marysville, Ohio 43041) comprising spaghnum peat moss, vermiculite, wetting agent and starter nutrients and treated with postemergence applications of some of the test chemicals formulated in the same manner. Plants ranged in height from 2 to 18 cm (1- to 4-leaf stage) for postemergence treatments.
(§3) Treated plants and controls were maintained in a greenhouse for 13 to 15 days, after which time all treated plants were visually evaluated and compared to controls. Plant response ratings, summarized in Table B, are based on a scale of 0 to 100 where 0 is no effect and 100 is complete control. A dash (-) response means no test result.

[2] = tested on: green foxtail (Setaria viridis); test: Test B pre-/postemergence plant response; conditions: for Foxtail, Green plant response rating (0 to 100 scale): 0 is no effect, 13 to 15 days
Excerpt: as §1, §2, §3

[3] = tested on: giant foxtail (Setaria faberii); test: Test B pre-/postemergence plant response; conditions: for Foxtail, Giant plant response rating (0 to 100 scale): 0 is no effect, 13 to 15 days
Excerpt: as §1, §2, §3

[4] = tested on: barnyardgrass (Echinochloa crus-galli); test: Test A pre-/postemergence plant response
Procedure, shortened: (§4)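 Approximately ten days after concurrent pre- and postemergence spraying in a greenhouse, plants were compared with untreated controls and rated visually for injury, 0 = no effect to 100 = complete control. Preemergence spray was directed onto loam/sand soil; postemergence targeted 1–2 leaf seedlings.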

[5] = tested on: velvetleaf (Abutilon theophrasti); test: Test A pre-/postemergence plant response
Procedure, shortened: as §4

[6] = tested on: large crabgrass (Digitaria sanguinalis); test: Test A pre-/postemergence plant response
Procedure, shortened: as §4

[7] = tested on: pigweed (Amaranthus retroflexus); test: Test A pre-/postemergence plant response
Procedure, shortened: as §4

[8] = tested on: corn (Zea mays); test: Test A pre-/postemergence plant response
Procedure, shortened: as §4

[9] = tested on: wheat (Triticum aestivum); test: Test A pre-/postemergence plant response
Procedure, shortened: as §4

[10] = tested on: morningglory (Ipomoea spp.); test: Test A pre-/postemergence plant response
Procedure, shortened: as §4

[11] = tested on: giant foxtail (Setaria faberii); test: Test A pre-/postemergence plant response
Procedure, shortened: as §4

[12] = 31 g ai/ha, postemergence, scale 0 to 100, 0 is no effect, 100 is complete control
[13] = 62 g ai/ha, postemergence, 100 is complete control
[14] = 250 g ai/ha, Preemergence, 0 to 100 scale
[15] = Postemergence, 125 g ai/ha, visual rating after 13 to 15 days, scale 0 (no effect) to 100 (complete control)
[16] = Postemergence, 250 g ai/ha, scale 0 to 100 (0 no effect, 100 complete control)
[17] = Preemergence, 31 g ai/ha, scale 0 to 100 (0 no effect, 100 complete control)
[18] = Preemergence, 62 g ai/ha, scale 0 to 100, 0 no effect, 100 complete control
[19] = Preemergence, 125 g ai/ha, scale 0 to 100, 0 no effect, 100 complete control
[20] = Postemergence, 125 g ai/ha, visual injury, 0 to 100 scale (0 no effect, 100 complete control), approx. ten days
[21] = Postemergence, 500 g ai/ha, 0 to 100 scale, 0 = no effect, 100 = complete control, approx. ten days
[22] = Preemergence, 125 g ai/ha, 0 to 100 scale, 0 = no effect, 100 = complete control
[23] = Preemergence, 500 g ai/ha, visual injury, 0 to 100 scale (0 no effect, 100 complete control), approx. ten days
[24] = Postemergence, 125 g ai/ha, 0 to 100 scale where 0 is no effect and 100 is complete control

CC(C)Cc1ncc(C(=O)C2=C(O)CCCC2=O)c(=O)n1-c1ccccc1 [Compound 68]
Plant response rating, Cocklebur [1, 12]: 25 | Cocklebur plant response rating (0 to 100 scale) [1, 13]: 75 | Plant response rating, Cocklebur [1, 14]: 80 | Plant response rating, Cocklebur [1, 15]: 90 | Plant response rating, Cocklebur [1, 16]: 90 | Plant response rating, Cocklebur [1, 17]: 0 | Plant response rating, Cocklebur [1, 18]: 10 | Plant response rating, Foxtail, Green [2, 12]: 40 | Foxtail, Green plant response rating (0 to 100 scale) [2, 13]: 85 | Plant response rating, Foxtail, Green [2, 14]: 85 | Plant response rating, Foxtail, Green [2, 15]: 85 | Plant response rating, Foxtail, Green [2, 16]: 95 | Plant response rating, Foxtail, Green [2, 17]: 0 | Plant response rating, Foxtail, Green [2, 18]: 5 | Plant response rating, Foxtail, Green [2, 19]: 25 | Plant response rating, Foxtail, Giant [3, 12]: 65 | Foxtail, Giant plant response rating (0 to 100 scale) [3, 13]: 80 | Plant response rating, Foxtail, Giant [3, 14]: 75 | Plant response rating, Foxtail, Giant [3, 15]: 85 | Plant response rating, Foxtail, Giant [3, 16]: 90 | Plant response rating, Foxtail, Giant [3, 17]: 0 | Plant response rating, Foxtail, Giant [3, 18]: 20 | Plant response rating, Foxtail, Giant [3, 19]: 55 | Barnyardgrass plant response rating [4, 20]: 80 | Plant response rating, Barnyardgrass [4, 21]: 90 | Plant response rating, Barnyardgrass [4, 22]: 0 | Plant response rating, Barnyardgrass [4, 23]: 50 | Velvetleaf plant response rating [5, 20]: 100 | Plant response rating, Velvetleaf [5, 21]: 100 | Plant response rating, Velvetleaf [5, 22]: 70 | Plant response rating, Velvetleaf [5, 23]: 100 | Crabgrass, Large plant response rating [6, 20]: 80 | Plant response rating, Crabgrass, Large [6, 21]: 100 | Plant response rating, Crabgrass, Large [6, 22]: 70 | Plant response rating, Crabgrass, Large [6, 23]: 100 | Pigweed plant response rating [7, 20]: 100 | Plant response rating, Pigweed [7, 21]: 100 | Plant response rating, Pigweed [7, 22]: 90 | Plant response rating, Pigweed [7, 23]: 100 | Corn plant response rating [8, 20]: 0 | Plant response rating, Corn [8, 21]: 10 | Plant response rating, Corn [8, 22]: 0 | Plant response rating, Corn [8, 23]: 0 | Wheat plant response rating [9, 20]: 0 | Plant response rating, Wheat [9, 21]: 0 | Plant response rating, Wheat [9, 22]: 0 | Plant response rating, Wheat [9, 23]: 0 | Morningglory plant response rating [10, 20]: 90 | Plant response rating, Morningglory [10, 21]: 90 | Plant response rating, Morningglory [10, 22]: 20 | Plant response rating, Morningglory [10, 23]: 50 | Foxtail, Giant plant response rating [11, 20]: 50 | Plant response rating, Foxtail, Giant [11, 21]: 70 | Plant response rating, Foxtail, Giant [11, 23]: 60

O=C1CCCC(O)=C1C(=O)c1cnc(-c2ccccc2)n(C2CC2)c1=O [Compound 90]
Plant response rating, Cocklebur [1, 12]: 75 | Cocklebur plant response rating (0 to 100 scale) [1, 13]: 90 | Plant response rating, Cocklebur [1, 15]: 100 | Plant response rating, Cocklebur [1, 16]: 100 | Plant response rating, Foxtail, Green [2, 12]: 65 | Foxtail, Green plant response rating (0 to 100 scale) [2, 13]: 65 | Plant response rating, Foxtail, Green [2, 16]: 90 | Plant response rating, Foxtail, Giant [3, 12]: 65 | Foxtail, Giant plant response rating (0 to 100 scale) [3, 13]: 70 | Plant response rating, Foxtail, Giant [3, 16]: 85 | Plant response rating, Barnyardgrass [4, 24]: 80 | Plant response rating, Barnyardgrass [4, 21]: 90 | Plant response rating, Barnyardgrass [4, 22]: 40 | Plant response rating, Barnyardgrass [4, 23]: 70 | Plant response rating, Velvetleaf [5, 24]: 100 | Plant response rating, Velvetleaf [5, 21]: 100 | Plant response rating, Velvetleaf [5, 22]: 70 | Plant response rating, Velvetleaf [5, 23]: 100 | Plant response rating, Crabgrass, Large [6, 24]: 80 | Plant response rating, Crabgrass, Large [6, 21]: 90 | Plant response rating, Crabgrass, Large [6, 22]: 60 | Plant response rating, Crabgrass, Large [6, 23]: 100 | Plant response rating, Pigweed [7, 24]: 100 | Plant response rating, Pigweed [7, 21]: 100 | Plant response rating, Pigweed [7, 22]: 80 | Plant response rating, Pigweed [7, 23]: 100 | Plant response rating, Corn [8, 24]: 0 | Plant response rating, Corn [8, 21]: 20 | Plant response rating, Corn [8, 22]: 0 | Plant response rating, Corn [8, 23]: 0 | Plant response rating, Wheat [9, 24]: 0 | Plant response rating, Wheat [9, 21]: 40 | Plant response rating, Wheat [9, 22]: 0 | Plant response rating, Wheat [9, 23]: 0 | Plant response rating, Morningglory [10, 24]: 100 | Plant response rating, Morningglory [10, 21]: 100 | Plant response rating, Morningglory [10, 22]: 0 | Plant response rating, Morningglory [10, 23]: 70 | Plant response rating, Foxtail, Giant [11, 24]: 70 | Plant response rating, Foxtail, Giant [11, 21]: 80 | Plant response rating, Foxtail, Giant [11, 22]: 30 | Plant response rating, Foxtail, Giant [11, 23]: 60
